These results are taken from publication PMC8591627 (ACS infectious diseases, 2021).

One data set relates to S. aureus. As to conditions: 8x MIC; ref [13], [35]–[36]; cited from earlier work.
The test system of data set [1] is JSF-3151–resistant strains. The data set can be described thus: MIC versus JSF-3151-resistant strains compared to the parental strain. Type of data set: cell-based, Staphylococcus aureus.
A further data set concerns MRSA COL strain. As to the kind of experiment: Mouse peritonitis-sepsis model. As to conditions: single dose 100 mg/kg subcutaneous. The class given is in vivo, Staphylococcus aureus.
The subject of a further data set is MRSA ATCC 43300. As to the kind of experiment: MIC, drug susceptibility assay. To be noted: 18 h; for MRSA ATCC 43300 MIC: 37 °C, visual inspection. The class given is cell-based, Staphylococcus aureus.
A further data set deals with MSSA ATCC 25923. As to the kind of experiment: MIC, drug susceptibility assay. Type of data set: cell-based, Staphylococcus aureus. As to conditions: 18 h, 37 °C, visual inspection.
A further data set concerns Vero cells. The class given is cell-based. To be noted: 72 h; for CC50: read-out: Vero cell CC50.

As usually defined, the MIC is the smallest concentration in the dilution series that meets the test's criterion for growth inhibition. By CC50 is commonly meant the concentration giving 50% cytotoxicity.

“And” between values parts separate entries of the source, which are not always exact repeats. Equal entries are not always repeated. Where only a bound is given, the exact number is not on record here.

Turning to `CC(=O)NC[C@H]1CN(c2ccc(N3CCOCC3)c(F)c2)C(=O)O1` [linezolid], the resistance frequency in the data set on S. aureus is reported as 1 x 10^−9 to 1 x 10^−6.
In the case of `CO[C@H]1/C=C/O[C@@]2(C)Oc3c(C)c(O)c4c(O)c(c(/C=N/N5CCN(C)CC5)c(O)c4c3C2=O)NC(=O)/C(C)=C\C=C\[C@H](C)[C@H](O)[C@@H](C)[C@@H](O)[C@@H](C)[C@H](OC(C)=O)[C@@H]1C` [Rifampicin], the “MIC versus JSF-3151–resistant strains compared to parental strain” value in data set [1] is recorded as “same MIC”.
The same measure, in the same setting: then `CC1(C)S[C@@H]2[C@H](NC(=O)[C@H](N)c3ccccc3)C(=O)N2[C@H]1C(=O)O` [Ampicillin], with “same MIC”.
Turning to `O=C(O)c1cn(C2CC2)c2cc(N3CCNCC3)c(F)cc2c1=O` [ciprofloxacin], the resistance frequency with S. aureus is listed as 1 x 10^−9 to 1 x 10^−6.
In the case of `CN[C@H](CC(C)C)C(=O)N[C@H]1C(=O)N[C@@H](CC(N)=O)C(=O)N[C@H]2C(=O)N[C@H]3C(=O)N[C@H](C(=O)N[C@H](C(=O)O)c4cc(O)cc(O)c4-c4cc3ccc4O)[C@H](O)c3ccc(c(Cl)c3)Oc3cc2cc(c3O[C@@H]2O[C@H](CO)[C@@H](O)[C@H](O)[C@H]2O[C@H]2C[C@](C)(N)[C@H](O)[C@H](C)O2)Oc2ccc(cc2Cl)[C@H]1O` [vancomycin], the “MIC versus JSF-3151–resistant strains compared to parental strain” value in data set [1] is “same MIC”. The resistance frequency in the data set with S. aureus is reported as 1 x 10^−9 to 1 x 10^−6. In addition, in the data set on MRSA COL strain, the “mice surviving 3 d post-administration” value is 12/12.
In the case of `C[C@H]1c2cccc(O)c2C(=O)C2=C(O)[C@]3(O)C(=O)C(C(N)=O)=C(O)[C@@H](N(C)C)[C@@H]3[C@@H](O)[C@@H]21` [Doxycycline], the “MIC versus JSF-3151–resistant strains compared to parental strain” value in data set [1] was “same MIC”.
The same measure, in the same setting: then `CC[C@H]1OC(=O)[C@H](C)[C@@H](O[C@H]2C[C@@](C)(OC)[C@@H](O)[C@H](C)O2)[C@H](C)[C@@H](O[C@@H]2O[C@H](C)C[C@H](N(C)C)[C@H]2O)[C@](C)(O)C[C@@H](C)C(=O)[C@H](C)[C@@H](O)[C@]1(C)O` [erythromycin], with “same MIC”.
Consider `Nc1ccc(C(=O)Nc2cc(Cl)cc3cccnc23)s1` [JSF-3640, 5-amino-N-(6-chloroquinolin-8-yl)thiophene-2-carboxamide], for which the MIC with MRSA ATCC 43300 (Staphylococcus aureus, ATCC43300|MRSA, read-out: MRSA ATCC 43300 MIC) was > 50 µg/mL.
For the compound `CN(C)c1nnc(-c2ccc(NC(=O)c3ccc([N+](=O)[O-])o3)cc2)o1` [JSF-3157], the “MRSA ATCC 43300 MIC” value with MRSA ATCC 43300 (listed as Z1542057255 (3157)) was 6.2 μg/mL and 18 μM. Moreover, the “MSSA ATCC 25923 MIC” value with MSSA ATCC 25923 (listed as Z1542057255 (3157)) was 6.2 μg/mL and 18 μM. Besides, in the data set on Vero cells, the “Vero cell CC50” value came to 0.78 µg/mL and the CC50 worked out at 2 µM.
Turning to `CC(=O)N1CCN(c2cc3c(cc2F)c(=O)c(C(=O)N2CCCc4ccccc42)cn3C2CC2)CC1` [JSF-3145], in the data set with MRSA ATCC 43300 (listed as Z27692293 (3145)), the “MRSA ATCC 43300 MIC” value is 12 μg/mL and 25 μM. The “MSSA ATCC 25923 MIC” value in the data set with MSSA ATCC 25923 (listed as Z27692293 (3145)) was 12 μg/mL and 25 μM. Also, in the data set with Vero cells, the “Vero cell CC50” value is > 50 µg/mL and the CC50 was > 100 µM.
`O=C(Nc1cccc(N2CCOC2=O)c1)c1ccc([N+](=O)[O-])o1` [JSF-3153]: the “MRSA ATCC 43300 MIC” value in the data set on MRSA ATCC 43300 (listed as Z364195972 (3153)) is 3.1 μg/mL and 10 μM. The “MSSA ATCC 25923 MIC” value in the data set with MSSA ATCC 25923 (listed as Z364195972 (3153)) was 6.2 μg/mL and 20 μM. In the data set on Vero cells, the “Vero cell CC50” value was found to be 1.6 µg/mL and the CC50 came to 5 µM.
